Reference: patent US20250222145A1, “TRACER COMPOSITION FOR RADIOACTIVE PET DIAGNOSIS, INTERMEDIATE THEREOF, AND PRODUCTION METHOD THEREOF” (OSAKA UNIVERSITY, priority 2021, published 2025)

Columns and labels:
[1] = radiochemical purity over time after production; assay type: physicochemical; details: after 5 hours of production, FIG. 1
Text: A result of measuring radiochemical purity of the obtained compound 3 is illustrated in FIG. 1.

brain tumor (C6 glioma) [2] = assay: distribution (% ID/g) in the mouse body; assay type: in vivo; details: FIG. 5; except kidney and pancreas
Text: Further, FIG. 5 is a graph representing a distribution (% ID/g) of the ^18F-FAMT-OMe of the present invention in the mouse body.

[3] = changes over time in accumulation in the kidney (SUV, PET); assay type: in vivo, mouse; details: FIG. 3, SUV based on the radiation dose of blood
Description: (§1) ^18F-FAMT-OMe synthesized in the Example 1 was administered to a model mouse of brain tumor (C6 glioma), and accumulation properties thereof were observed Specifically, a solution containing about 10 MBq of ^18F-FAMT-OMe was intravenously injected into the mouse, and PET images were acquired at regular intervals.
In addition, FIG. 3 (left drawing) illustrates a result of measuring changes over time in the accumulation of the ^18F-FAMT-OMe in the kidney on the basis of a standardized uptake value (SUV) value based on the radiation dose of blood. As a comparative example, a result of a case using the ^18F-FAMT is illustrated in FIG. 3 (right drawing). In addition, FIG. 4 is a graph comparing the maximum value of SUV (SUVmax) with the existing tracer compounds ^18F-FBPA and ^18F-FAMT.

brain tumor (C6 glioma) [4] = assay: PET imaging of tumor accumulation in C6 glioma model mouse; assay type: in vivo
Description: as §1

Compound: COc1ccc(CC(C)(N)C(=O)O)cc1[18F] (stereo not drawn) [Compound 3]
- stability of radiochemical purity [1]: purity was maintained even after 5 hours
- distribution (% ID/g): tumor versus normal organs and blood (brain tumor (C6 glioma) [2]): significantly higher accumulation at a tumor site
- accumulation in the kidney over time (SUV) [3]: excreted from the kidney over time
- accumulation at a tumor site (PET images) (brain tumor (C6 glioma) [4]; about 10 MBq intravenously, model mouse of brain tumor (C6 glioma), FIG. 2): clear and high accumulation at a tumor site
- washing out from tumor site (brain tumor (C6 glioma) [4]; in comparison with conventional ^18F-FAMT, FIG. 2): washing out was significantly gentle
- accumulation one hour after administration (brain tumor (C6 glioma) [4]; one hour after administration, versus conventional ^18F-FAMT): better than that of the conventional ^18F-FAMT
